Laboratory results taken from patent US20220000911A1, “COMBINATION OF GOLD COMPLEXES WITH OLAPARIB OR OTHER PARP1/2 INHIBITORS FOR USE IN THE TREATMENT OF CANCER RESISTANT TO SAID PARP1/2 INHIBITORS” (Varsity Pharmaceuticals Limited, priority 2020, published 2022).
Blank lines part the entries; values can stand above or below the molecule they belong to.

Experiments:
Format in all cases: cell-based
[1] = tested on: olaparib resistant HCC1937 triple negative breast cancer cells; experiment: Proliferation inhibition of olaparib resistant HCC1937 cells, single agents
Experimental: (§1) The cells were harvested from a flask into cell culture medium (RPMI 1640 Medium with 10% FBS) and then counted. The cells were diluted with culture medium and 40 μL of cell suspension (1000 cells/well) was added into each well of a 384-well cell culture plate. The plate was covered with a lid and left at room temperature without shaking for 30 minutes. The plate was then transferred to an incubator at 37° C. and 5% CO2 and left overnight.
(§2) Test compounds were dissolved at a concentration of 30 mM in DMSO to create a stock solution. 45 μL of the stock solution was transferred to a 384 pp-plate. A 3-fold, 10-point dilution was performed by transferring 15 μL of the compound solution into 30 μL DMSO by using TECAN (EVO200) liquid handler. The plate was then spun at room temperature at 1,000 RPM for 1 minute. 40 nL of the diluted compound was then transferred from the compound source plate into the cell plate. The cell plate was then covered with a lid and placed in an incubator at 37° C. and 5% CO2 and left for 120 hours. 72 hours after treatment with the compound detection was conducted as discussed below.
(§3) CellTiter Glo® reagents were thawed and equilibrated to room temperature. The cell plate was then removed from the incubator and equilibrated at room temperature for 15 minutes. 30 μL of the CellTiter Glo® reagents were then added into each well (at 1:1 to culture medium). The contents was mixed for 2 minutes on an orbital shaker to induce cell lysis and then the plates were allowed to incubate at room temperature for 30 minutes. Luminescence was then measured on an Envision reader (Perkin Elmer).
(§4) Inhibition (%)=100×(Lumvehicle−Lumsample)/(Lumvehicle−Lumblank),
The methods were as described in examples 1 and 2, except the HCC1937 cell line was used.
The HCC1937 cell line was established from a primary breast carcinoma from a patient with a germ-line BRCA1 mutation. It is an example of a triple-negative breast cancer (TNBC) cell line. Breast cancer patients routinely have the expression of estrogen receptor (ER), progesterone receptor (PR), and amplification of HER-2/Neu evaluated. […] The latter group is referred to as triple-negative breast cancer based on the lack of these three molecular markers. TNBC represents approximately 10-15% of all breast cancers and patients with TNBC have a poor outcome compared to the other subtypes of breast cancer.

[2] = tested on: olaparib resistant A2780 ovarian cancer cells; experiment: CellTiter Glo proliferation inhibition, olaparib resistant A2780 cells, single agents; conditions: for Maximum inhibition observed in olaparib resistant A2780 cells: concentration range 0.06 nM to 30,000 nM
Experimental: A2780 ovarian cancer cells (wild-type “WT”) were cultured in RPMI 1640 Medium with 10% Fetal Bovine Serum (FBS).
To obtain cells resistant to olaparib, the cells were cultured in cell culture medium (RPMI 1640 Medium with 10% FBS) supplemented with 20 μM olaparib for one month in order to generate A2780 cells resistant to olaparib (“R”). After a month the cells were continuously cultured in the cell culture medium (RPMI 1640 Medium with 10% FBS) supplemented with 10 μM olaparib prior to use and for up to two months to maintain the resistance.
as §1
as §2, with “A 3-fold, 10-point dilution was performed by transferring 15 μL of the compound solution into 30 μL DMSO by using TECAN (EVO200) liquid handler.” left out
as §3
The inhibition activity was calculated using the following formula:
as §4
where Lumvehicle is the luminescence of cells treated with 0.1% DMSO and Lumblank is cells in the culture medium.
The IC50 was calculated by fitting the curve using Xlfit (v5.3.1.3), equation 201: […]

[3] = tested on: wildtype A2780 ovarian cancer cells; experiment: CellTiter Glo proliferation inhibition, wild-type A2780 cells; conditions: for Maximum inhibition observed in wild-type A2780 cells: concentration range 0.06 nM to 30,000 nM
Experimental: The A2780 cell line is an ovarian cancer cell line that was established from an ovarian endometroid adenocarcinoma tumour. […] It is commonly used as a model to observe the effects of, and test the potency of various chemicals, methods of delivery and treatments for ovarian cancer. […] The cells were diluted with culture medium and 40 μL of cell suspension (1000 cells/well) was added into each well of a 384-well cell culture plate. The plate was covered with a lid and left at room temperature without shaking for 30 minutes. The plate was then transferred to an incubator at 37° C. and 5% CO2 and left overnight. Test compounds were dissolved at a concentration of 30 mM in DMSO to create a stock solution. 45 μL of the stock solution was transferred to a 384 pp-plate. […] The plate was then spun at room temperature at 1,000 RPM for 1 minute. 40 nL of the diluted compound was then transferred from the compound source plate into the cell plate. The cell plate was then covered with a lid and placed in an incubator at 37° C. and 5% CO2 and left for 120 hours. 72 hours after treatment with the compound detection was conducted as discussed below. CellTiter Glo® reagents were thawed and equilibrated to room temperature. The cell plate was then removed from the incubator and equilibrated at room temperature for 15 minutes. 30 μL of the CellTiter Glo® reagents were then added into each well (at 1:1 to culture medium). The contents was mixed for 2 minutes on an orbital shaker to induce cell lysis and then the plates were allowed to incubate at room temperature for 30 minutes. Luminescence was then measured on an Envision reader (Perkin Elmer). The inhibition activity was calculated using the following formula: […]

[4] = olaparib resistant A2780, test conc. 1,111.11 nM
[5] = olaparib resistant A2780, test conc. 3,333.33 nM
[6] = wildtype A2780, test conc. 1,111.11 nM
[7] = wildtype A2780, test conc. 3,333.33 nM

Compound: CC(=O)OC[C@H]1O[C@@H]([S-])[C@H](OC(C)=O)[C@@H](OC(C)=O)[C@@H]1OC(C)=O.CCP(CC)CC.[Au+] [Auranofin, auranofin]
- Mean Inhibition (n = 3) ([1]; test conc. 1.52 nM): −8.11%
- Mean Inhibition (n = 3) ([1]; test conc. 4.57 nM): 0.54%
- Mean Inhibition (n = 3) ([1]; test conc. 13.72 nM): −0.91%
- Mean Inhibition (n = 3) ([1]; test conc. 41.15 nM): 0.49%
- Mean Inhibition (n = 3) ([1]; test conc. 123.46 nM): 0.54%
- Mean Inhibition (n = 3) ([1]; test conc. 370.37 nM): 13.11%
- Mean Inhibition (n = 3) ([1]; test conc. 1,111.11 nM): 59.64%
- Mean Inhibition (n = 3) ([1]; test conc. 3,333.33 nM): 98.95%
- Mean Inhibition (n = 3) ([1]; test conc. 10,000 nM): 100.03%
- Mean Inhibition (n = 3) ([1]; test conc. 30,000 nM): 99.97%
- Maximum inhibition observed in olaparib resistant A2780 cells [2]: 100%
- Mean Inhibition (n = 3) ([2]; olaparib resistant A2780, test conc. 1.52 nM): 4.64%
- Mean Inhibition (n = 3) ([2]; olaparib resistant A2780, test conc. 4.57 nM): 3.42%
- Mean Inhibition (n = 3) ([2]; olaparib resistant A2780, test conc. 13.72 nM): 12.34%
- Mean Inhibition (n = 3) ([2]; olaparib resistant A2780, test conc. 41.15 nM): 41.07%
- Mean Inhibition (n = 3) ([2]; olaparib resistant A2780, test conc. 123.46 nM): 78.31%
- Mean Inhibition (n = 3) ([2]; olaparib resistant A2780, test conc. 370.37 nM): 96.38%
- Mean Inhibition (n = 3) [2, 4]: 96.82%
- Mean Inhibition (n = 3) [2, 5]: 100.13%
- Mean Inhibition (n = 3) ([2]; olaparib resistant A2780, test conc. 10,000 nM): 100.19%
- Mean Inhibition (n = 3) ([2]; olaparib resistant A2780, test conc. 30,000 nM): 100.17%
- IC50 ([2]; olaparib resistant A2780 cells): 55 nM
- Maximum inhibition observed in wild-type A2780 cells [3]: 100%
- IC50 ([3]; wild-type A2780 cells): 101 nM
- Mean Inhibition (n = 3) ([3]; wildtype A2780, test conc. 1.52 nM): −1.87%
- Mean Inhibition (n = 3) ([3]; wildtype A2780, test conc. 4.57 nM): −0.74%
- Mean Inhibition (n = 3) ([3]; wildtype A2780, test conc. 13.72 nM): 2.52%
- Mean Inhibition (n = 3) ([3]; wildtype A2780, test conc. 41.15 nM): 21.08%
- Mean Inhibition (n = 3) ([3]; wildtype A2780, test conc. 123.46 nM): 56.32%
- Mean Inhibition (n = 3) ([3]; wildtype A2780, test conc. 370.37 nM): 86.25%
- Mean Inhibition (n = 3) [3, 6]: 98.39%
- Mean Inhibition (n = 3) [3, 7]: 100.15%
- Mean Inhibition (n = 3) ([3]; wildtype A2780, test conc. 10,000 nM): 100.17%
- Mean Inhibition (n = 3) ([3]; wildtype A2780, test conc. 30,000 nM): 100.20%

- IC50 ([2]; Homo sapiens, A2780): > 30000 nM
- IC50 ([3]; Homo sapiens, A2780): 3890 nM
Compound: O=C(c1cc(Cc2n[nH]c(=O)c3ccccc23)ccc1F)N1CCN(C(=O)C2CC2)CC1 [Olaparib, olaparib]
- inhibition at 0.00152 µM ([1]; test conc. 1.52 nM, read-out: Mean Inhibition (n = 3)): -6.55%
- inhibition at 0.00457 µM ([1]; test conc. 4.57 nM, read-out: Mean Inhibition (n = 3)): -1.82%
- inhibition at 0.01372 µM ([1]; test conc. 13.72 nM, read-out: Mean Inhibition (n = 3)): -3.47%
- inhibition at 0.04115 µM ([1]; test conc. 41.15 nM, read-out: Mean Inhibition (n = 3)): -0.93%
- inhibition at 0.12346 µM ([1]; test conc. 123.46 nM, read-out: Mean Inhibition (n = 3)): 1.32%
- inhibition at 0.37037 µM ([1]; test conc. 370.37 nM, read-out: Mean Inhibition (n = 3)): 4.41%
- Mean Inhibition (n = 3) ([1]; test conc. 1,111.11 nM): 3.09%
- Mean Inhibition (n = 3) ([1]; test conc. 3,333.33 nM): 4.90%
- inhibition at 10 µM ([1]; test conc. 10,000 nM, read-out: Mean Inhibition (n = 3)): 17%
- inhibition at 30 µM ([1]; test conc. 30,000 nM, read-out: Mean Inhibition (n = 3)): 11.8%
- inhibition at 0.00152 µM ([2]; Homo sapiens, olaparib resistant A2780, test conc. 1.52 nM, read-out: Mean Inhibition (n = 3)): 1.01%
- inhibition at 0.00457 µM ([2]; Homo sapiens, olaparib resistant A2780, test conc. 4.57 nM, read-out: Mean Inhibition (n = 3)): 2.74%
- inhibition at 0.01372 µM ([2]; Homo sapiens, olaparib resistant A2780, test conc. 13.72 nM, read-out: Mean Inhibition (n = 3)): 1.78%
- inhibition at 0.04115 µM ([2]; Homo sapiens, olaparib resistant A2780, test conc. 41.15 nM, read-out: Mean Inhibition (n = 3)): 1.43%
- inhibition at 0.12346 µM ([2]; Homo sapiens, olaparib resistant A2780, test conc. 123.46 nM, read-out: Mean Inhibition (n = 3)): 5.53%
- inhibition at 0.37037 µM ([2]; Homo sapiens, olaparib resistant A2780, test conc. 370.37 nM, read-out: Mean Inhibition (n = 3)): 5.11%
- inhibition at 10 µM ([2]; Homo sapiens, olaparib resistant A2780, test conc. 10,000 nM, read-out: Mean Inhibition (n = 3)): 9.9%
- inhibition at 30 µM ([2]; Homo sapiens, olaparib resistant A2780, test conc. 30,000 nM, read-out: Mean Inhibition (n = 3)): 16.2%
- Maximum inhibition observed in olaparib resistant A2780 cells [2]: 23%
- Mean Inhibition (n = 3) [2, 4]: 2.24%
- Mean Inhibition (n = 3) [2, 5]: 6.97%
- inhibition at 0.00152 µM ([3]; Homo sapiens, wildtype A2780, test conc. 1.52 nM, read-out: Mean Inhibition (n = 3)): 0.36%
- inhibition at 0.00457 µM ([3]; Homo sapiens, wildtype A2780, test conc. 4.57 nM, read-out: Mean Inhibition (n = 3)): 1.77%
- inhibition at 0.01372 µM ([3]; Homo sapiens, wildtype A2780, test conc. 13.72 nM, read-out: Mean Inhibition (n = 3)): 2.98%
- inhibition at 0.04115 µM ([3]; Homo sapiens, wildtype A2780, test conc. 41.15 nM, read-out: Mean Inhibition (n = 3)): 5%
- inhibition at 0.12346 µM ([3]; Homo sapiens, wildtype A2780, test conc. 123.46 nM, read-out: Mean Inhibition (n = 3)): 12.5%
- inhibition at 0.37037 µM ([3]; Homo sapiens, wildtype A2780, test conc. 370.37 nM, read-out: Mean Inhibition (n = 3)): 11.9%
- inhibition at 10 µM ([3]; Homo sapiens, wildtype A2780, test conc. 10,000 nM, read-out: Mean Inhibition (n = 3)): 62.7%
- inhibition at 30 µM ([3]; Homo sapiens, wildtype A2780, test conc. 30,000 nM, read-out: Mean Inhibition (n = 3)): 70.8%
- Maximum inhibition observed in wild-type A2780 cells [3]: 72%
- Mean Inhibition (n = 3) [3, 6]: 24.63%
- Mean Inhibition (n = 3) [3, 7]: 39.88%
